According to patent US12569506B2, “Methods of treating osteonecrosis with LLP2A-bisphosphonate compounds” (The Regents of the University of California, priority 2016, dated 2026):
Entries after “also recorded” stand apart in the source; their conditions may differ.

Experiments:
[1] = test system: dexamethasone-treated mice; test: Empty lacunae density in distal femoral epiphysis, 90 day model; format: in vivo, BALB/c mice; details: distal femoral epiphysis, day 90; Dex only vs LLP2A-Ale 250, 500, 750 μg/kg groups (FIG. 8A-B)
Method: FIG. 8A-8B. Empty lacunae density of femurs from in dexamethasone-treated mice. Mice treated with placebo (PL), dexamethasone alone (Dex), Dex+250 μg/kg LLP2A-Ale, Dex+500 μg/kg LLP2A-Ale, or Dex+750 μg/kg LLP2A-Ale as described above for FIG. 7 were assessed for empty lacunae density within the distal femoral epiphysis region. Empty lacunae density was calculated by determining the number of empty lacunae in the entire distal femoral epiphysis region divided by the total number of osteocytes within the same region for each specimen. In the Dex only group, 75% of the samples had 10% or more empty lacunae, as compared to 44-62% of the samples in LLP2A-Ale-treated groups. A higher number of LLP2A-Ale 250 μg/kg, LLP2A-Ale 500 μg/kg, and LLP2A-Ale 750 μg/kg—treated samples had less than 10% empty lacunae as compared to Dex only treatment.
Both the right and left distal femurs were fixed in 10% neutral buffered formalin and were shaken for 3 days, then decalcified in 5% EDTA until the bones were fully decalcified. The specimens were then processed in ascending concentrations of ethanol and embedded in paraffin. Tissue sections were cut into 5 microns sections, stained with hematoxylin and eosin and evaluated for the presence of osteonecrosis by bright field microscopy at 20× magnification. […] Osteonecrosis was detected using modified criteria reported by Yang el al., (a mouse model for glucocorticoid-induced osteonecrosis: Effect of a steroid holiday. J Orthop Res. 2009; 27:169-75) which defines osteonecrosis as requiring all of the following changes: (1) empty lacunae, (2) pyknotic osteocyte nuclei in areas of empty lacunae and necrosis of adjacent bone marrow, (3) presence of excessive fat cells in the bone marrow, (4) cartilage degradation and (5) presence of fibrin thrombi in the blood vessels. In addition, trabecular bone volume, adipose volume, sinusoid volume and osteoblast surface at the distal femoral epiphyses were measured. Empty lacunae density was calculated by empty lacunae/total osteocytes within the entire distal femoral epiphysis region for each sample. […]

[2] = test system: dexamethasone-treated mice; test: Histological evaluation (H&E) of femoral epiphyses, 90 day model; format: in vivo, BALB/c mice; details: Dex 4 mg/L in drinking water, day 90, femoral epiphyses (FIG. 9C-9F)
Method: FIG. 9A-9F. Histological evaluation of femurs from placebo- or dexamethasone-treated mice. Mice were treated with placebo (PL) or dexamethasone alone (Dex) as described above for FIG. 7. All mice were euthanized at day 90. Right and left distal femurs were fixed in 10% neutral buffer formalin and decalcified. The specimens were dehydrated, embedded in paraffin, cut into 5 micron sections and H&E stained. The sections were scored by two experienced histologists and then a consensus reading was performed by two additional histologists. FIG. 9A-9B: 4× (A) and 20× (B) magnifications of representative proximal femoral epiphyses in mice treated with placebo. (C) 4× magnification of a representative proximal femoral epiphyses in mice treated with dexamethasone (Dex) alone. FIGS. 9D, 9E, and 9F: 20× magnifications of representative proximal femoral epiphyses in mice treated with dexamethasone (Dex) alone.
FIG. 11A-11F. Histological evaluation of femurs from LLP2A-Ale-treated mice. Mice were treated with Dex+250 μg/kg LLP2A-Ale as described above for FIG. 7. All mice were euthanized at day 90. Right and left distal femurs were fixed in 10% neutral buffer formalin and decalcified. The specimens were dehydrated, embedded in paraffin, cut into 5 micron sections and H&E stained. The sections were scored by two experienced histologists and then a consensus reading was performed by two additional histologists. (A, D): 4× magnifications of representative proximal femoral epiphyses in mice treated with Dex+LLP2A-Ale. (B, C, E, F): 20× magnifications of representative proximal femoral epiphyses in mice treated with Dex+LLP2A-Ale.
Both the right and left distal femurs were fixed in 10% neutral buffered formalin and were shaken for 3 days, then decalcified in 5% EDTA until the bones were fully decalcified. The specimens were then processed in ascending concentrations of ethanol and embedded in paraffin. Tissue sections were cut into 5 microns sections, stained with hematoxylin and eosin and evaluated for the presence of osteonecrosis by bright field microscopy at 20× magnification. Experimental methods are also described in Mohan et al., Calif Tissue Int (2016) doi:10.1007/s00223-016-0195-6, which is incorporated herein by reference in its entirety for all purposes. Osteonecrosis was detected using modified criteria reported by Yang el al., (a mouse model for glucocorticoid-induced osteonecrosis: Effect of a steroid holiday. J Orthop Res. 2009; 27:169-75) which defines osteonecrosis as requiring all of the following changes: (1) empty lacunae, (2) pyknotic osteocyte nuclei in areas of empty lacunae and necrosis of adjacent bone marrow, (3) presence of excessive fat cells in the bone marrow, (4) cartilage degradation and (5) presence of fibrin thrombi in the blood vessels. In addition, trabecular bone volume, adipose volume, sinusoid volume and osteoblast surface at the distal femoral epiphyses were measured. Empty lacunae density was calculated by empty lacunae/total osteocytes within the entire distal femoral epiphysis region for each sample. Each section was scored by two experienced histologists, then a consensus reading was performed by two additional experienced histologists.

[3] = Body weight, 90 day model; format: in vivo, BALB/c mice; details: all Dex treated animals vs placebo, day 7 up to day 90 (p<0.05)
Method: All the mice were euthanized at day 90. The body weights of all the study animals were assessed each week. If the study animals had 10% loss of body weight compared to the previous week, the dose of dexamethasone was reduced to 2 mg/L, until weight gain was observed. All of the animals were injected with calcein (30 mg/kg) and alizarin red (20 mg/kg) at 7 and 2 days before euthanization.

[4] = test system: dexamethasone-treated mice; test: 30 and 45 day prevention study: incidence of glucocorticoid-induced osteonecrosis; format: in vivo, BALB/c mice; details: for Incidence of glucocorticoid-induced osteonecrosis: Dex alone 4 mg/L in drinking water; for Prevalence/incidence of glucocorticoid-induced osteonecrosis lesions (in words): 30 or 45 days, Dex + LLP2A-Ale 250 or 500 μg/kg, or Dex + 40 μg/kg hPTH five times a week (FIG. 12)
Method: FIG. 12. Reduction in incidence of glucocorticoid-induced osteonecrosis in mice treated with recombinant LLP2A-Ale. Mice were randomized into placebo (PL) (fresh water), dexamethasone (Dex) 4 mg/l in drinking water, Dex+250 μg/kg LLP2A-Ale, Dex+500 μg/kg LLP2A-Ale, or Dex+40 μg/kg hPTH (1-34) groups for a 30 day treatment period or a 45 day treatment period. The incidence of Dex-induced osteonecrosis was 57% on day 30 and 73% on day 45.
(§1) The efficacy of LLP2A-Ale and hPTH (1-34) was evaluated over a 30 and 45 day study using a mouse model of glucocorticoid-induced osteonecrosis. Seven week-old male BALB/c mice were randomized into Placebo group (fresh water), glucocorticoid only (4 mg/L dexamethasone (Dex) in drinking water), Dex+250 μg/kg LLP2A-Ale, Dex+500 μg/kg LLP2A-Ale, or Dex+40 μg/kg hPTH (administered five times a week) for 30 or 45 days. At day 30 or 45, the mice were sacrificed. Study endpoints included histological evidence of osteonecrosis, bone mass, and prevalent blood vessels (CD31 and Endomucin expression) in the distal femur, and was performed as set forth in Example 2. Non-parametric Kruskal-Wallis tests were used to determine the differences between the groups.

[5] = test system: dexamethasone-treated mice; test: 30 and 45 day prevention study: trabecular bone histology of distal femur epiphyses; format: in vivo, BALB/c mice
Method: as §1

[6] = test system: CD31 and Endomucin expression; test: 30 and 45 day prevention study: blood vessels in the distal femur (CD31 and Endomucin expression); format: in vivo, BALB/c mice
Method: as §1

α4β1 integrin = α4β1 integrin (Homo sapiens, UniProt P05556+P13612); details: Liu 2006; Peng 2006; DeNardo 2009; cited from earlier work
Chain of α4β1 integrin (P13612 34-1032): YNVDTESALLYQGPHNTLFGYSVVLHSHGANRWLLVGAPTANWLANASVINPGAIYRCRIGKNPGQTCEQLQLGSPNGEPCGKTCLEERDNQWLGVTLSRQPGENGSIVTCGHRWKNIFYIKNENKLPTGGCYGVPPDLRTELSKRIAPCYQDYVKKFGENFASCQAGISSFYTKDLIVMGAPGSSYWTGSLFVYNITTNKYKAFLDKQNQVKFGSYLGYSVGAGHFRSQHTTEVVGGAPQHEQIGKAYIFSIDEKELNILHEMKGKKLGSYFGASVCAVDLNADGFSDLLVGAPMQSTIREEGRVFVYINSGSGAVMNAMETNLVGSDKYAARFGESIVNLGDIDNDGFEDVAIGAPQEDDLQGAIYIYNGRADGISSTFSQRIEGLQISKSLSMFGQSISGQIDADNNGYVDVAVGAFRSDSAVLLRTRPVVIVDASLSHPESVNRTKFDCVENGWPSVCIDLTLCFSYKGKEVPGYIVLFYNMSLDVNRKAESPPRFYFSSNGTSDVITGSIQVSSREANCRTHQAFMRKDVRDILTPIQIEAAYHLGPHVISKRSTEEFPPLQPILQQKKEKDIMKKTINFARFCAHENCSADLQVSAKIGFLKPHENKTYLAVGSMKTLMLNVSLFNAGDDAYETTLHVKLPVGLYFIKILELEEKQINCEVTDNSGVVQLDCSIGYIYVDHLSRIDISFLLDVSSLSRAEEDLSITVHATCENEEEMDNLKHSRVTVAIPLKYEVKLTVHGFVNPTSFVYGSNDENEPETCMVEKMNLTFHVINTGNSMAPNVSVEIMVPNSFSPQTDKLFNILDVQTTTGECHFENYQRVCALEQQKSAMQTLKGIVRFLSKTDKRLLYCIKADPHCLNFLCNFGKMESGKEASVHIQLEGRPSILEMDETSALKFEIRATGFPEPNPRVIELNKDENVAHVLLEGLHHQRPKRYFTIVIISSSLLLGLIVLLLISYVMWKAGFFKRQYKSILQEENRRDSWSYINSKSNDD
Chain of α4β1 integrin (P05556 21-798): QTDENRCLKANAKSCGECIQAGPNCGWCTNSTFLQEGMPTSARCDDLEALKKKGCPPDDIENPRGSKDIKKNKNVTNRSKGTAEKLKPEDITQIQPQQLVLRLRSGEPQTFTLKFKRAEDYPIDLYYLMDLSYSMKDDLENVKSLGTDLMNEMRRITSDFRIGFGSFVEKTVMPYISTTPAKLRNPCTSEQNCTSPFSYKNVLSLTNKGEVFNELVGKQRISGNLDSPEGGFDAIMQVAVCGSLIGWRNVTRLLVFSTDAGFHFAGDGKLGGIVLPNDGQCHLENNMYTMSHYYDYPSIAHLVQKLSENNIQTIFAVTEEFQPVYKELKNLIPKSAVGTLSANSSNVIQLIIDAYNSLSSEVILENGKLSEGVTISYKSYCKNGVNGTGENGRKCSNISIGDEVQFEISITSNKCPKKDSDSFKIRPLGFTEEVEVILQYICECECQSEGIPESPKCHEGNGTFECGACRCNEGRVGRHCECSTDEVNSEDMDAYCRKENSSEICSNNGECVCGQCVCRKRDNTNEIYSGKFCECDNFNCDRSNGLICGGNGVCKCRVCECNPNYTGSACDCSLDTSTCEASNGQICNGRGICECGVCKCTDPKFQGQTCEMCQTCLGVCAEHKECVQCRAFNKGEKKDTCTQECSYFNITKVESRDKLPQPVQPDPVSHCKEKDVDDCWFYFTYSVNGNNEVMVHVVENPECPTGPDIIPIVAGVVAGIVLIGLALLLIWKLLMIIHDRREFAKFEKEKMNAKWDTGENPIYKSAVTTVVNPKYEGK

[7] = test system: glucocorticoid-treated mice; test: 56 day mouse model of glucocorticoid-induced osteonecrosis: femur blood vessel / vascular density by microCT; format: in vivo
Method: FIG. 2. Blood vessel density of femurs from glucocorticoid-treated mice. 4 month old male mice were treated glucocorticoid (“GC”) or placebo for 56 days. At day 28 a group of glucocorticoid-treated mice were treated with LLP2A-Ale or PTH for an additional 28 days.
FIG. 3. Vascular density of femurs from glucocorticoid-treated mice. 4 month old male mice were treated with glucocorticoid or placebo for 56 days. At day 28 a group of glucocorticoid-treated mice were treated with LLP2A-Ale or PTH for an additional 28 days. At day 56 animals were given a contrast agent and then sacrificed and then the animals femurs were decalcified and then scanned by microCT.
The efficacy of LLP2A-Ale was evaluated using a mouse model of glucocorticoid-induced osteonecrosis. 4-month-old male mice were treated for 56 days with glucocorticoids. At day 28, a group of mice was treated with either LLP2A-Ale or PTH for an additional 28 days. Blood vessel density of the femur was measured after sacrifice by microCT according to published methods. […] Vascular density of the femurs of glucocorticoid-treated mice subsequently treated with LLP2A-Ale or PTH was also assessed by giving the mice a contrast agent, then sacrificing the mice, decalcifying the femurs, and scanning the femurs by microCT. […] Without being bound to a particular theory, it is believed that LLP2A-Ale promotes increased vascularity by bringing MSCs to the bone that is turning over with osteonecrosis, which stimulates new blood vessel formation, which in turn is needed to stimulate new bone formation in the osteonecrotic bone.

[8] = test system: glucocorticoid-treated mice; test: Trabecular bone volume in glucocorticoid-treated mice; format: in vivo; details: GC 28 days then treatment; change from day 28 to 56, measured in vivo (FIG. 6 left)
Method: FIG. 6. Trabecular bone volume in glucocorticoid-treated mice. Mice were treated for 28 days with glucocorticoid (GC), then treated with either LLP2A-Ale, PTH, or LLP2A-Ale+PTH. The outcome measure was the change in trabecular bone mass from day 28 to 56, measured in vivo at the distal femur (left panel) and change in trabecular bone mass for the vertebral trabecular bone volume (right panel).
Changes in trabecular bone mass during the treatment period for the distal femur and vertebral trabecular bone volume were measured.

C[C@@H]1C[C@H]2[C@@H]3CCC4=CC(=O)C=C[C@]4(C)[C@@]3(F)[C@@H](O)C[C@]2(C)[C@@]1(O)C(=O)CO [Dex, dexamethasone]
Samples with 10% or more empty lacunae [1]: 75% | Histological findings of osteonecrosis with dexamethasone alone [2]: Evidence of osteonecrosis was present throughout the epiphyses of the distal femurs; also recorded: necrotic trabeculae characterized by large empty lacunae | Histological findings of osteonecrosis with dexamethasone alone ([2]; listed as dexamethasone): most of the bone marrow space was occupied by fat | Body weight [3]: significantly lower | Incidence of glucocorticoid-induced osteonecrosis ([4]; day 30): 57% | Incidence of glucocorticoid-induced osteonecrosis ([4]; day 45): 73% | Trabecular thickness ([5]; Dex vs placebo, day 30 and 45 (p<0.05)): significantly reduced | Trabecular number ([5]; Dex, day 45 (p<0.05)): significantly reduced | Staining intensity of CD31 and Endomucin expression ([6]; Dex vs LLP2A-Ale, hPTH (1-34) or placebo, day 30 and 45 (data not shown)): decreased the staining intensity

hPTH (1-34): human PTH (1-34), 40 μg/kg five times a week in Example 3 (SVSEIQLMHNLGKHLNSMERVEWLRKKLQDVHNF; Parathyroid hormone; UniProt P01270 32-65, looked up, fragment)
Prevalence/incidence of glucocorticoid-induced osteonecrosis lesions (in words) [4]: prevented incident GC-induced osteonecrosis lesions; also recorded: prevented glucocorticoid-induced osteonecrotic lesions | Prevalence/incidence of glucocorticoid-induced osteonecrosis lesions (in words) ([4]; listed as hPTH): reduced the incidence and severity of osteonecrosis | Trabecular bone volume ([5]; day 30 and 45, Dex vs placebo, treated vs Dex (p<0.05)): higher bone volume | Trabecular separation ([5]; vs Dex group, day 30 and 45 (p<0.05)): lower trabecular separation | Vascular integrity of the distal femur ([6]; 30 and 45 day study, conclusion): maintained the vascular integrity

Cc1ccccc1NC(=O)Nc1ccc(CC(=O)N[C@@H](CCCCNC(=O)/C=C/c2cccnc2)C(=O)N[C@@H](CCCC(=O)O)C(=O)NC2(C(N)=O)CCCCC2)cc1 [LLP2A]
Binding to α4β1 integrin (affinity and specificity in words) (α4β1 integrin): high-affinity, high-specificity

B1: PTH: parathyroid hormone, anabolic agent; given 20 ug/kg 5× a week in Example 1 (peptide, UniProt P01270 32-115, looked up)
Parathyroid hormone: SVSEIQLMHNLGKHLNSMERVEWLRKKLQDVHNFVALGAPLAPRDAGSQRPRKKEDNVLVESHEKSLGEADKADVNVLTKAKSQ
modifications: Parathyroid hormone
Blood vessel density of the femur ([7]; 4 month old male mice, GC 56 days, LLP2A-Ale or PTH from day 28 for 28 days, microCT after sacrifice (FIG. 2)): significantly different from all other groups | Vascular density of femurs ([7]; contrast agent at day 56, decalcified femurs scanned by microCT (FIG. 3), vs GC alone): did not exhibit a significant change in vascular density; also recorded: did not significantly change vascular density | Change in trabecular bone mass/volume at the distal femur [8]: increased the trabecular bone volume to the baseline/sham level
